Data from the Kinase Knowledgebase extract (Sharma et al. 2016).
pIC50: −log10 of the molar value.

Biological target: ROCK2 (human) (UniProt O75116)
Test: Inhibition of ROCK2 Kinase Activity

Sequence of ROCK2 (human) (O75116 whole entry, looked up): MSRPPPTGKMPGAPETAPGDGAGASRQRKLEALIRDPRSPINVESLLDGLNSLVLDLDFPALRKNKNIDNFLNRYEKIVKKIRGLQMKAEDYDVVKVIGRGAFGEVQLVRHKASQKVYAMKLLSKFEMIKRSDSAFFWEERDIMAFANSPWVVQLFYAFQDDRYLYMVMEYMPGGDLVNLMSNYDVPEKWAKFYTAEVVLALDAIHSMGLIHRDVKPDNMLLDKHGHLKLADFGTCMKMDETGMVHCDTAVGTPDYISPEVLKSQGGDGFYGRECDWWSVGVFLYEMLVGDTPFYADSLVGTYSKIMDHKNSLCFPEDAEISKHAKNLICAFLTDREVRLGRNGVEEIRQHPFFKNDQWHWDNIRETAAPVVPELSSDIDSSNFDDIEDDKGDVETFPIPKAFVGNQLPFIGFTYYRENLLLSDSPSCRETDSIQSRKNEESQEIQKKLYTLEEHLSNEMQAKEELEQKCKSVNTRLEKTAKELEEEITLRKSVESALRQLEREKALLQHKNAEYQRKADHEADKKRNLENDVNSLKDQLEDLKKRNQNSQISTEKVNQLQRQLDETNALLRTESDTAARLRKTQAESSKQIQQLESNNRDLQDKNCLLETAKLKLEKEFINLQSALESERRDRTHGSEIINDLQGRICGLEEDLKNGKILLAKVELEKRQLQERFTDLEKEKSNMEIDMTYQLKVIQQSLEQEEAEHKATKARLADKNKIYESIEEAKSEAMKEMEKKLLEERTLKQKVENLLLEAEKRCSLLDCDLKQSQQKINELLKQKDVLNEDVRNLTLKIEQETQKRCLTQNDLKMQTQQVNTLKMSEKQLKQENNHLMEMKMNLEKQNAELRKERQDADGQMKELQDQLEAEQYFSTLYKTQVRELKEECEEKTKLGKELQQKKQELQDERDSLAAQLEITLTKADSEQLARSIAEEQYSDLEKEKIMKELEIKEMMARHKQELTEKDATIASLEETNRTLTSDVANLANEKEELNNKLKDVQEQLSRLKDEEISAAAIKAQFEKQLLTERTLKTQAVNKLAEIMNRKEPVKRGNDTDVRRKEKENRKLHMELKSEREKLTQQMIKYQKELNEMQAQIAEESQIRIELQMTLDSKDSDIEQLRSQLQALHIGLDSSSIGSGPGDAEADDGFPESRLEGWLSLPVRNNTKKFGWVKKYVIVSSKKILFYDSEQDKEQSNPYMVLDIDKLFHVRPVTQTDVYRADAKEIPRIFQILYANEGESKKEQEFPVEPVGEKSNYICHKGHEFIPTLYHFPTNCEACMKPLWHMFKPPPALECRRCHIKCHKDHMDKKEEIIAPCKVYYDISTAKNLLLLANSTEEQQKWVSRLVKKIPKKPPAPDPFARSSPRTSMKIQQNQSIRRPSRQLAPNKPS

Compound	pIC50
COc1cc2c(=O)[nH]ccc2cc1NC(=O)[C@@H](N)C1CCCCC1	> 6.00
Cc1ccccc1C(=O)Nc1cc2cc[nH]c(=O)c2cc1Cl	> 6.00
NC1(C(=O)Nc2ccc3c(=O)[nH]ccc3c2)CCCCC1	> 6.00
O=C(Nc1cc2cc[nH]c(=O)c2cc1Cl)C(NCC1CC1)c1ccccc1 (stereo unspecified)	> 6.00
COc1cc2c(=O)[nH]ccc2cc1NC(=O)[C@H](OC)c1ccccc1	> 6.00
O=C(Nc1cc2cc[nH]c(=O)c2cc1Cl)C(O)c1ccccc1 (stereo unspecified)	> 6.00
O=C(CNCC1CC1)Nc1ccc2c(=O)[nH]cnc2c1	> 6.00
NCCCS(=O)(=O)c1ccc(C(=O)Nc2cc3cc[nH]c(=O)c3cc2Cl)c(Cl)c1	> 6.00
O=C(Nc1ccc2c(=O)[nH]cnc2c1)C1CCCN1 (stereo unspecified)	> 6.00
Cc1cc(S(C)(=O)=O)ccc1C(=O)Nc1cc2cc[nH]c(=O)c2cc1Cl	> 6.00
NC(Cc1ccc(F)cc1)C(=O)Nc1cc2cc[nH]c(=O)c2cc1Cl (stereo unspecified)	> 6.00
O=C(Nc1ccc2c(=O)[nH]cnc2c1)C1CCCNC1 (stereo unspecified)	> 6.00
O=C(Nc1cc2cc[nH]c(=O)c2cc1Br)[C@H]1CNC[C@@H]1c1ccccc1	> 6.00
CN1CCC(C(=O)Nc2ccc3c(=O)[nH]ccc3c2)CC1	> 6.00
O=C(Nc1cc2cc[nH]c(=O)c2cc1Cl)C1(c2ccc(Cl)cc2)CCNCC1	> 6.00
CC(C)(C)CC(=O)Nc1cc2cc[nH]c(=O)c2cc1Cl	> 6.00
O=C(Nc1cc2nc[nH]c(=O)c2cc1Cl)C(NC1CC1)c1ccccc1 (stereo unspecified)	> 6.00
CS(=O)(=O)CC(=O)Nc1cc2cc[nH]c(=O)c2cc1Cl	> 6.00
CNC(C)(C)C(=O)Nc1ccc2c(=O)[nH]ccc2c1	> 6.00

Compound	pIC50
CCN(C)C(C(=O)Nc1cc2cc[nH]c(=O)c2cc1Cl)c1ccccc1 (stereo unspecified)	> 6.00
O=C(Nc1cc2cc[nH]c(=O)c2cc1Cl)c1cccc(Cl)c1Cl	> 6.00
O=C(Nc1ccc2c(=O)[nH]ccc2c1)c1cccs1	> 6.00
Cc1onc(-c2ccccc2)c1C(=O)Nc1cc2cc[nH]c(=O)c2cc1Cl	> 6.00
CC1(C(=O)Nc2cc3cc[nH]c(=O)c3cc2Cl)CCNCC1	> 6.00
O=C(Nc1cc2cc[nH]c(=O)c2cc1Cl)c1cc([N+](=O)[O-])ccc1Cl	> 6.00
O=C(Nc1ccc2c(=O)[nH]ccc2c1)c1cccnc1Oc1ccc(Cl)cc1	> 6.00
CSCCC(=O)Nc1cc2cc[nH]c(=O)c2cc1Cl	> 6.00
O=C(Nc1cc2cc[nH]c(=O)c2cc1Cl)[C@H]1CNC[C@@H]1c1ccc(F)cc1	> 6.00
O=C(Nc1cc2cc[nH]c(=O)c2cc1Cl)C(=O)c1ccccc1	> 6.00
O=C(Nc1ccc2c(=O)[nH]cnc2c1)C1CCNCC1	> 6.00
N[C@@H](C(=O)Nc1ccc2c(=O)[nH]cnc2c1)c1ccccc1	> 6.00
O=C(Nc1cc2cc[nH]c(=O)c2cc1Cl)[C@H](O)c1ccccc1	> 6.00
O=C(Nc1cc2cc[nH]c(=O)c2cc1Cl)c1ccc(Br)cc1Cl	> 6.00
CC(C)[C@@H](N)C(=O)Nc1ccc2c(=O)[nH]cnc2c1	> 6.00
CN1CCC(C(=O)Nc2cc3cc[nH]c(=O)c3cc2C#N)CC1	> 6.00
CN1CCC(C(=O)Nc2cc3cc[nH]c(=O)c3cc2Br)CC1	> 6.00
O=C(Nc1cc2nc[nH]c(=O)c2cc1Cl)[C@H]1CNC[C@@H]1c1cccc(Br)c1	> 6.00
CCOC(=O)CC(=O)Nc1cc2cc[nH]c(=O)c2cc1Cl	> 6.00

Compound	pIC50
O=C(Nc1ccc2c(=O)[nH]ccc2c1)C1CNCC1c1ccccc1 (stereo unspecified)	> 6.00
O=C(Nc1cc2cc[nH]c(=O)c2cc1Cl)C1CCN(Cc2ccccc2)CC1	> 6.00
O=C(Nc1cc2cc[nH]c(=O)c2cc1Cl)[C@H]1CNCC[C@@H]1c1ccccc1	> 6.00
O=C(Nc1ccc2c(=O)[nH]cnc2c1)C(NC1CC1)c1ccccc1 (stereo unspecified)	> 6.00
C[C@H]1CNCC[C@@H]1C(=O)Nc1cc2cc[nH]c(=O)c2cc1Cl	> 6.00
O=C(Nc1cc2cc[nH]c(=O)c2cc1Cl)[C@H]1[C@@H]2CNC[C@@H]21	> 6.00
COc1cc2c(=O)[nH]ccc2cc1NC(=O)[C@@H]1CCC[C@H](N)C1	> 6.00
O=C(Nc1cc2cc[nH]c(=O)c2cc1Cl)[C@H]1CNC[C@@H]1c1ccccc1	> 6.00
CC(C)(C)NCC(=O)Nc1cc2cc[nH]c(=O)c2cc1Cl	> 6.00
O=C(Nc1cc2cc[nH]c(=O)c2cc1Cl)C1CCN(Cc2ccncc2)CC1	> 6.00
O=C(CN[C@]12C[C@H]3C[C@H](C[C@H](C3)C1)C2)Nc1cc2cc[nH]c(=O)c2cc1Cl	> 6.00
N[C@@H](C(=O)Nc1ccc2c(=O)[nH]ccc2c1)c1ccc(Cl)cc1	> 6.00
CN(C)C(C(=O)Nc1ccc2c(=O)[nH]ccc2c1)c1ccccc1 (stereo unspecified)	> 6.00
CC(=O)O[C@H]1CC[C@@H](C(=O)Nc2cc3cc[nH]c(=O)c3cc2Cl)CC1	> 6.00
O=C(Nc1cc2cc[nH]c(=O)c2cc1Cl)c1ccc2c(c1)CNCC2	> 6.00
O=C(Nc1cc2cc[nH]c(=O)c2cc1Br)[C@H]1CNC[C@@H]1c1ccc(Cl)cc1	> 6.00
CC(=O)OC(C(=O)Nc1cc2cc[nH]c(=O)c2cc1Cl)c1ccccc1 (stereo unspecified)	> 6.00
NC(C(=O)Nc1ccc2c(=O)[nH]cnc2c1)c1ccccc1 (stereo unspecified)	> 6.00
